Experimental data as given in US20200323934A1, “PHARMACEUTICAL COMPOSITION AND FOOD” (Sankyo Holdings Co., Ltd., priority 2016, published 2020).

Test system: CRE-dependent transcription (PKA/ERK/CREB intracellular signaling)
Experiment: luciferase reporter assay of CRE-dependent gene transcription activity in plasmid-transfected PC12 cells
Type: cell-based, rat
Procedure: In order to evaluate the gene transcription activity of each sample, the luciferase reporter assay was performed.
The luciferase assay is used to quantitatively analyze the transcription activity of a test material. In order to activate the transcription, various control sequences present in an upstream promoter of a gene are required.
In this embodiment, a plasmid was used in which a CRE sequence which was a control sequence activated by the PKA/ERK/CREB intracellular signaling and was present in an upstream promoter of a memory, and in which learning-related gene and a gene of a luciferase functioning as a luminescent enzyme were connected to each other.
When the test material activates the CRE-dependent transcription, the luciferase gene present at a downstream side is expressed, and the expression thereof is increased, so that a luciferase protein is increased.
PC12 cells (rat adrenal medulla pheochromocytoma derived cell line) were seeded in 96-well culture dish at a seeding density of 4.0×10^4 cells/well. Subsequently, the plasmid was transfected in the PC12 cell, and the cultivation was performed in a medium to which each of the samples was dripped. As the medium, an α-modified Dulbecco's modified Eagle's medium supplemented with 1% serum (DMEM) was used. […]

COc1ccc(-c2cc(=O)c3c(OC)c(OC)c(OC)c(OC)c3o2)cc1OC [Nobiletin, nobiletin]
concentration at which nobiletin has an enhancing action (in combination with Anredera cordifolia, suggested from ponkan's peel extract assumed to contain 1% nobiletin): ≤ 2 µg/mL | concentration at which nobiletin expresses the luciferase activity (nobiletin solution alone): 2 µg/mL
